What all share (test): inhibition of tumour cell growth, NCI panel, 48 h
Experiment [1] deals with RPMI-8226 leukemia.
The subject of experiment [2] is ACHN renal.
For experiment [3], the system named is MDA-N.
Experiment [4] concerns U251 CNS.
The test system of experiment [5] is HOP-62 NSCLC.
Experiment [6] deals with K-562 leukemia.
Experiment [7] relates to UO-31 renal.
Experiment [8] relates to SK-MEL-2 melanoma.
The subject of experiment [9] is SNB-19 CNS.
Experiment [10] has as its system M14 melanoma.

SMILES strings stand for the structures.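 These data come from cells grown in 96-well plates and exposed to compound for 48 hours at five concentrations. TGI: concentration producing complete growth inhibition.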

This passage reports TGI results from PubChem BioAssay (NCI).

In the case of `COC(=O)C1CC(C=O)=C(SC)N1` (stereo not given), the TGI in [1], in experiment [2], in experiment [3], in [4], in experiment [5] and in experiment [6] was over 50 µM each time. Also, the TGI in [7], in experiment [8], in experiment [9] and in [10] was over 50 µM in each case.

As for `CCOC(=O)C1C2C1C1C(C(=O)OCC)C21` (stereo not given), the TGI in experiment [1], in [2], in experiment [3], in [4], in [5] and in experiment [6] was over 100 µM each time. The TGI in experiment [7], in experiment [8], in experiment [9] and in experiment [10] was over 100 µM throughout.

Consider `Cc1nc2ccccc2n1CCc1nc2ccccc2[nH]1`, for which the TGI in experiment [1], in [2], in experiment [3], in experiment [4], in experiment [5] and in experiment [6] was over 100 µM each time. The TGI in experiment [7], in [8], in experiment [9] and in experiment [10] was over 100 µM in each case.

For `CCCS(=O)OC1C(C2COC(C)(C)O2)OC2OC(C)(C)OC21` (stereo not given), the TGI is 12.8 µM in [1]; 26.9 µM in experiment [2]; over 70.6 µM in [3]; 28.4 µM in experiment [4]; 32.5 µM in experiment [5]; over 100 µM in experiment [6]. Also, the TGI stood at 28.3 µM in [7], 37.4 µM in experiment [8], 30.8 µM in experiment [9] and 37.8 µM in [10].

For the compound `Cc1nc(-c2ccc(Cl)cc2)cn2c1nc1ccccc12`, the TGI in experiment [1], in experiment [2], in [3], in experiment [4], in experiment [5] and in [6] was over 100 µM in each case. Further, the TGI in [7], in experiment [8], in experiment [9] and in [10] was over 100 µM throughout.

`O=[N+]([O-])c1ccc(-c2nc3ccccc3o2)cc1`: the TGI in experiment [1], in [2], in experiment [3], in experiment [4], in [5] and in [6] was over 100 µM in each case. Also, the TGI in experiment [7], in [8], in experiment [9] and in experiment [10] was over 100 µM in each case.

For the compound `OCC1=C[C@@](COCc2ccccc2)(OCc2ccccc2)[C@@H](OCc2ccccc2)[C@@H]1OCc1ccccc1`, the TGI in experiment [1] was 7.33 µM; in experiment [2] it was over 100 µM; in [3], 53.6 µM; in experiment [4] it was 25.6 µM; in experiment [5] it was 70.6 µM; in experiment [6], 50.6 µM. The TGI was 67.1 µM in [7], 39.3 µM in experiment [8], over 100 µM in experiment [9] and over 100 µM in experiment [10].

In the case of `CCSc1nn(-c2c3ccccc3nc3ccccc23)c(=S)s1`, the TGI in experiment [1], in [2], in [3], in [4], in [5] and in [6] was over 100 µM throughout. The TGI in [7], in experiment [8], in experiment [9] and in experiment [10] was over 100 µM in each case.

On to `CN(CCc1ccccn1)C(=S)N/N=C/c1ccccn1`, for which the TGI in experiment [1] was 0.0424 µM; in experiment [2], 1.41 µM; in experiment [3], 37.4 µM; in [4], over 94.9 µM; in experiment [5], 3.48 µM; in experiment [6], 0.0493 µM. The TGI in [7] is 17.8 µM; in experiment [8], 0.27 µM; in experiment [9], over 100 µM; in experiment [10] it was 2.34 µM.

Turning to `C1CN(C23OC4(N5CCOCC5)C5C6CC(C7C6C4C72)C53)CCO1` (stereo not given), the TGI in experiment [1] was over 100 µM; in experiment [2], over 31.6 µM; in [3], over 100 µM; in experiment [4] it was over 100 µM; in [5] it was over 100 µM; in experiment [6] it was over 100 µM. Moreover, the TGI in [7], in experiment [8], in experiment [9] and in experiment [10] was over 100 µM in each case.

For `NCCCN1CCN(CCCNc2ccc3ncn4c5ccccc5c(=O)c2c34)CC1`, the TGI in experiment [1] is over 25 µM; in experiment [2], 13.9 µM; in experiment [3] it was 4.88 µM; in experiment [4], over 25 µM; in experiment [5], over 25 µM; in experiment [6], over 25 µM. Further, the TGI was 22.5 µM in experiment [7], 13.3 µM in experiment [8], 4.46 µM in [9] and 8.05 µM in [10].

`CC1(C)CN=C(c2ccc3ccccc3c2O)N1`: the TGI in experiment [1], in experiment [2], in [3], in experiment [4], in experiment [5] and in [6] was over 100 µM each time. In addition, the TGI in experiment [7], in [8], in experiment [9] and in experiment [10] was over 100 µM throughout.

`O=C1C(=O)C(CCCO)(CCCO)CCCCCCCCC1(CCCO)CCCO`: the TGI was 32 µM in [1]; over 100 µM in [2]; over 100 µM in experiment [3]; over 100 µM in experiment [4]; over 100 µM in [5]; 69.6 µM in experiment [6]. Also, the TGI in [7] was 60.4 µM; in experiment [8], over 100 µM; in experiment [9], over 100 µM; in experiment [10], over 100 µM.

As to `CC(=O)N/N=C1\NN(C(C)=O)C2(S1)C(=O)Nc1ccccc12` (stereo not given), the TGI in [1], in experiment [2], in [3], in experiment [4], in experiment [5] and in experiment [6] was over 100 µM in each case. For the same compound, the TGI in experiment [7], in experiment [8], in [9] and in experiment [10] was over 100 µM in each case.
